These are literature values, as cited in patent US20050215455A1, “Surfactants in powdered form that can be used in tablets or gelatin capsules; preparation process and compositions containing them” (priority 2004, published 2005).

The structures appear in SMILES notation. Values after ≈ are worked out from the molar mass of the structure shown.

On to `Cn1c(=O)c2[nH]cnc2n(C)c1=O` [Theophylline], for which the Solubility in water was 8 µg/mL (≈ 44.4 µM).
